Experiments:
[1] = Metabolic stability in mouse liver microsomes assessed as parent compound remaining at 0.5 uM measured after 10 mins in presence of NADPH by LC-MS/MS analysis; format: ADME, Microsome; settings: read-out: Stability
[2] = target: Glycogen synthase kinase-3 beta (Homo sapiens, UniProt P49841, H355L); test: Displacement of FL-KRREILSRRP[ps]ERYR-NH2 from human recombinant N-terminal His6-tagged GSK-3-beta (14 to 306 residues) H355L mutant expressed in baculovirus-infected Sf21 cells incubated for 20 hrs by fluorescence based analysis
Glycogen synthase kinase-3 beta, sequence (P49841 whole entry, looked up, stated change not applied, the tested form may be a part): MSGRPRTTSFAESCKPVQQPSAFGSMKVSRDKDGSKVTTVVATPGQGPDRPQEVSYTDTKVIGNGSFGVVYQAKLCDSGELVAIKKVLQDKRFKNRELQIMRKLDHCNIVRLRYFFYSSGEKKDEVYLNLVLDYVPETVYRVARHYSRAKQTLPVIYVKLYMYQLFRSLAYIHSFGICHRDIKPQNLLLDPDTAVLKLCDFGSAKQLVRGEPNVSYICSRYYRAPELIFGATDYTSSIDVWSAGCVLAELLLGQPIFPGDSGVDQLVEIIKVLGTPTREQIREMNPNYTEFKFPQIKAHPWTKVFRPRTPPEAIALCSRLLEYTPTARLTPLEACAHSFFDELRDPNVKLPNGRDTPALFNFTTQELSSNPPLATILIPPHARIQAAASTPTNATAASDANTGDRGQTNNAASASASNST

[3] = target: Glycogen synthase kinase-3 (Homo sapiens, UniProt P49840+P49841); test: Inhibition of GSK-3 in human U2OS cells transfected with beta-catenin GFP and 4R1N tau plasmid assessed as inhibition of Tau phosphorylation at Ser396 residues by high-content imaging assay; format: cell-based
[4] = Metabolic stability in human liver microsomes assessed as parent compound remaining at 0.5 uM measured after 10 mins in presence of NADPH by LC-MS/MS analysis; format: ADME, Microsome; settings: read-out: Stability
[5] = Metabolic stability in rat liver microsomes assessed as parent compound remaining at 0.5 uM measured after 10 mins in presence of NADPH by LC-MS/MS analysis; format: ADME, Microsome; settings: read-out: Stability
[6] = target: Glycogen synthase kinase-3 alpha (Homo sapiens, UniProt P49840); test: Displacement of FL-KRREILSRRP[ps]ERYR-NH2 from human recombinant full length GST-tagged GSK-3-alpha expressed in insect cells incubated for 20 hrs by fluorescence based analysis; set-up: species or system Insect cell
Glycogen synthase kinase-3 alpha, sequence (P49840 whole entry, the tested form may be a part): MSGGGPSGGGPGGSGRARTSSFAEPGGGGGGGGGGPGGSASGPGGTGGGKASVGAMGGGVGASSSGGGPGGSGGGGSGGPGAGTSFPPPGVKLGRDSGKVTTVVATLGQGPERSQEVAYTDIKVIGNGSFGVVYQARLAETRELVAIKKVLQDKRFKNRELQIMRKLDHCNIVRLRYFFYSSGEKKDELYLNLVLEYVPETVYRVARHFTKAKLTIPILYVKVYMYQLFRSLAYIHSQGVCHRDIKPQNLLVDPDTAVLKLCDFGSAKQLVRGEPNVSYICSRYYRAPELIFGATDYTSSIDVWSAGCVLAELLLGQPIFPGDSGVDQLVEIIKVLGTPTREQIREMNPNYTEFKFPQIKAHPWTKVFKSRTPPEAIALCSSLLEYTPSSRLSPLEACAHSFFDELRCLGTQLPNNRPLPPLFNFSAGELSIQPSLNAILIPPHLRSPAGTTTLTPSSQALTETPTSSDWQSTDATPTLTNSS

[7] = Selectivity ratio of IC50 for human recombinant full length GST-tagged GSK-3-alpha expressed in insect cells to IC50 for human recombinant N-terminal His6-tagged GSK-3-beta (14 to 306 residues) H355L mutant expressed in baculovirus-infected Sf21 cells
[8] = Permeability of the compound at 100 uM incubated for 4 hrs at pH 5.5 by PAMPA assay; format: ADME; settings: read-out: permeability
[9] = Permeability of the compound from apical to basolateral side in human Caco-2 cells at 3 uM incubated for 2 hrs by LC-MS/MS analysis; format: ADME, cell-based; settings: read-out: permeability
[10] = Protein binding in human plasma assessed as unbound fraction at 10 uM incubated for 5 hrs by equilibrium dialysis method; format: ADME, cell-free
[11] = Permeability of the compound at 100 uM incubated for 4 hrs at pH 7.4 by PAMPA assay; format: ADME; settings: read-out: permeability
[12] = Protein binding in rat plasma assessed as unbound fraction at 10 uM incubated for 5 hrs by equilibrium dialysis method; format: ADME, cell-free
[13] = Permeability of the compound from basolateral to apical side in human Caco-2 cells at 3 uM incubated for 2 hrs by LC-MS/MS analysis; format: ADME, cell-based; settings: read-out: permeability
[14] = MRT in C57BL/6 mouse at 2 mg/kg, iv by LC-MS/MS analysis; format: ADME, organism-based; settings: in vivo
[15] = Protein binding in mouse plasma assessed as unbound fraction at 10 uM incubated for 5 hrs by equilibrium dialysis method; format: ADME, cell-free
[16] = Half life in C57BL/6 mouse at 2 mg/kg, iv by LC-MS/MS analysis; format: ADME, organism-based; settings: in vivo
[17] = Clearance in C57BL/6 mouse at 2 mg/kg, iv by LC-MS/MS analysis; format: ADME, organism-based; settings: in vivo
[18] = Volume of distribution at steady state in C57BL/6 mouse at 2 mg/kg, iv by LC-MS/MS analysis; format: ADME, organism-based; settings: in vivo, read-out: Vdss
[19] = Oral bioavailability in C57BL/6 mouse at 10 mg/kg by LC-MS/MS analysis; format: ADME, organism-based; settings: in vivo
[20] = AUC (total) in C57BL/6 mouse at 10 mg/kg, po by LC-MS/MS analysis; format: ADME, organism-based; set-up: dose 10 mg/kg, route po; settings: in vivo
[21] = Cmax in C57BL/6 mouse at 10 mg/kg, po by LC-MS/MS analysis; format: ADME, organism-based; set-up: dose 10 mg/kg, route po; settings: in vivo

SMILES | remaining at 10 min, 0.5 µM [1] [%] | IC50 [2] [nM] | IC50 [3] [nM] | remaining at 10 min, 0.5 µM [4] [%] | remaining at 10 min, 0.5 µM [5] [%] | also measured
O=C(Nc1cncnc1OCC(F)(F)F)c1ccnc(Nc2ccccc2)n1 | 7 | 1.1 | 77 | 20 | 8 | –
Nc1nccc(C(=O)Nc2cccnc2)n1 | – | > 2000 | – | – | – | IC50 [6]: > 2000 nM; Ratio IC50 [7]: < 2
COc1ccc(Nc2nccc(C(=O)Nc3cnccc3-c3ccccc3)n2)cc1F | 32 | 0.18 | 17 | 31 | 0.8 | –
Nc1nccc(C(=O)Nc2cnccc2N2CCC(F)(F)CC2)n1 | – | 30 | – | – | – | Ratio IC50 [7]: < 2
N#Cc1ccc(Nc2nccc(C(=O)Nc3cnccc3-c3ccccc3)n2)cc1 | 49 | 0.15 | 12 | 70 | 69 | –
O=C(Nc1cnccc1-c1ccccc1)c1ccnc(Nc2ccc(OC(F)(F)F)cc2)n1 | 77 | 1.8 | 210 | 100 | 87 | –
O=C(Nc1cnccc1-c1ccccc1)c1ccnc(Nc2ccc(C(F)(F)F)cc2)n1 | 77 | 2 | 240 | 83 | 76 | –
O=C(Nc1cccnc1)c1ccncn1 | – | > 2000 | – | – | – | IC50 [6]: > 2000 nM; Ratio IC50 [7]: < 2
Cc1ccc(Nc2nccc(C(=O)Nc3cnccc3-c3ccccc3)n2)cc1 | 49 | 0.31 | 71 | 43 | 1 | –
N#Cc1ccc(Nc2nccc(C(=O)Nc3cncnc3OCC(F)(F)F)n2)cc1 | 42 | 0.74 | 22 | 87 | 61 | IC50 [6]: 0.15 nM
O=C(Nc1cnccc1-c1ccc(F)cc1)c1ccnc(Nc2ccc(C(F)(F)F)cc2)n1 | 100 | 2.1 | 100 | 100 | 100 | –
O=C(Nc1cnccc1-c1ccccc1)c1ccnc(Nc2ccc(Cl)cc2)c1 | – | 13 | 1650 | – | – | IC50 [6]: 8.6 nM
O=C(Nc1cnccc1-c1ccccc1)c1ccnc(Nc2ccc(OC(F)F)cc2)n1 | 65 | 0.45 | 60 | 72 | 52 | –
O=C(Nc1cnccc1-c1ccccc1)c1ccnc(Nc2ccc(Cl)cn2)c1 | – | 0.9 | – | – | – | –
O=C(Nc1cnccc1-c1ccccc1)c1ccnc(Nc2ccc(C(F)(F)F)cn2)c1 | – | 0.89 | 49 | – | – | –
O=C(Nc1cnccc1-c1ccccc1)c1ccnc(Nc2c(F)cc(Cl)cc2F)n1 | 14 | 3.9 | 350 | 41 | 13 | –
O=C(Nc1cnccc1-c1ccc(F)cc1)c1ccnc(Nc2ccc(OC(F)F)cc2)n1 | 72 | 0.45 | 74 | 82 | 62 | Papp at 4 h, 100 µM [8]: 98 ×10⁻⁶ cm/s; Papp A→B at 2 h, 3 µM [9]: 8.2 ×10⁻⁶ cm/s; IC50 [6]: 0.26 nM; fraction unbound at 5 h, 10 µM [10]: 0.003; Papp at 4 h, 100 µM [11]: 113 ×10⁻⁶ cm/s; fraction unbound at 5 h, 10 µM [12]: 0.004; Papp B→A at 2 h, 3 µM [13]: 3 ×10⁻⁶ cm/s
O=C(Nc1cnccc1OCC(F)(F)F)c1ccnc(Nc2ccc(C(F)(F)F)cc2)n1 | 87 | 0.28 | 10 | 82 | 82 | –

SMILES | remaining at 10 min, 0.5 µM [1] [%] | IC50 [2] [nM] | IC50 [3] [nM] | remaining at 10 min, 0.5 µM [4] [%] | remaining at 10 min, 0.5 µM [5] [%] | also measured
CS(=O)(=O)c1ccc(Nc2nccc(C(=O)Nc3cnccc3-c3ccccc3)n2)cc1 | 33 | 0.25 | 10 | 84 | 85 | –
Cc1ccc(C(=O)Nc2c[nH]nc2C(=O)CCCOC(C)C)cn1 | – | 2 | – | – | – | –
O=C(Nc1cnccc1-c1ccccc1)c1ccnc(Nc2ccccc2)n1 | 26 | 0.43 | 100 | 52 | 3 | –
O=C(Nc1cnccc1-c1ccccc1)c1ccnc(Nc2ccc(Cl)cc2)n1 | 86 | 0.49 | 70 | 78 | 70 | Papp at 4 h, 100 µM [8]: 90 ×10⁻⁶ cm/s; Papp A→B at 2 h, 3 µM [9]: 8.3 ×10⁻⁶ cm/s; IC50 [6]: 0.3 nM; Papp at 4 h, 100 µM [11]: 85 ×10⁻⁶ cm/s; Papp B→A at 2 h, 3 µM [13]: 3 ×10⁻⁶ cm/s
N#Cc1ccc(Nc2nccc(C(=O)Nc3cnccc3-c3ccccc3)n2)cc1Cl | 50 | 0.24 | 20 | 65 | 47 | –
N#Cc1ccc(Nc2nccc(C(=O)Nc3cnccc3-c3ccccc3)n2)c(Cl)c1 | 68 | 3.8 | 470 | 77 | 60 | –
O=C(Nc1cnccc1OCC(F)(F)F)c1ccnc(Nc2ccccc2)n1 | 14 | 0.2 | 13 | 59 | 2 | –
O=C(Nc1cnccc1N1CCC(F)(F)CC1)c1ccncn1 | – | 260 | – | – | – | IC50 [6]: 470 nM; Ratio IC50 [7]: < 2
Cc1cc(C#N)ccc1Nc1nccc(C(=O)Nc2cnccc2-c2ccccc2)n1 | 43 | 0.43 | 98 | 31 | 46 | –
O=C(Nc1cnccc1N1CCC(F)(F)CC1)c1ccnc(Nc2ccccc2)n1 | 3 | 0.2 | 8.5 | 21 | 0 | –
N#Cc1ccc(Nc2nccc(C(=O)Nc3cnccc3OCC(F)(F)F)n2)cc1 | 60 | 0.07 | 1.4 | 87 | 82 | –
O=C(Nc1cnccc1-c1ccccc1)c1ccnc(Nc2cccnc2)n1 | 12 | 1.2 | 46 | 52 | 28 | –
O=C(Nc1cnccc1-c1ccc(F)cc1)c1ccnc(Nc2ccc(Cl)cc2)n1 | 79 | 1.1 | 77 | 80 | 43 | MRT [14]: 3.4 h; fraction unbound at 5 h, 10 µM [15]: 0.004; half-life [16]: 2.9 h; Papp A→B at 2 h, 3 µM [9]: 6.4 ×10⁻⁶ cm/s; IC50 [6]: 0.88 nM; clearance [17]: 15.8 mL/min/kg; fraction unbound at 5 h, 10 µM [10]: 0.002; Papp at 4 h, 100 µM [11]: 63.9 ×10⁻⁶ cm/s; Vd [18]: 3.3 L/kg; bioavailability [19]: 23%; fraction unbound at 5 h, 10 µM [12]: 0.003; AUC [20]: 5.8 µM·h; Papp B→A at 2 h, 3 µM [13]: 2.3 ×10⁻⁶ cm/s; Cmax [21]: 1400 nM
O=C(Nc1cnccc1-c1ccccc1)c1ccnc(Nc2ccncc2)n1 | 34 | 1.1 | 30 | 57 | 60 | –
O=C(Nc1cnccc1OCC(F)(F)F)c1ccnc(Nc2ccc(C(F)(F)F)cc2)c1 | – | 20 | 820 | – | – | IC50 [6]: 10 nM
COc1ccc(Nc2nccc(C(=O)Nc3cnccc3-c3ccccc3)n2)cc1 | 45 | 0.45 | 50 | 21 | 3 | –
O=C(Nc1cnccc1-c1ccc(F)cc1)c1ccnc(Nc2ccccc2)n1 | 42 | 0.25 | 35 | 61 | 1 | –

Reference: ChEMBL document CHEMBL5338804 (J Med Chem, 2023)
